Blank lines part the entries; values can stand above or below the compound they belong to. The source made the active and inactive calls.
Experiments:
[1] = Luminescence-based cell-based high throughput dose response assay to identify activators of the DAF-12 from the parasite S. stercoralis (ssDAF-12).; assay type: functional
[2] = biological target: T1, Oxysterols receptor LXR-beta (Homo sapiens, UniProt P55055); test: LXR agonists, Gal4 luciferase reporter, dose response, counter-screen for ssDAF-12 agonist project, cell-based, luminescence, HEK293, S. stercoralis campaign (AID 720737); assay type: functional; settings: read-out: IC50 (the source's name)
T1 sequence (P55055 whole entry): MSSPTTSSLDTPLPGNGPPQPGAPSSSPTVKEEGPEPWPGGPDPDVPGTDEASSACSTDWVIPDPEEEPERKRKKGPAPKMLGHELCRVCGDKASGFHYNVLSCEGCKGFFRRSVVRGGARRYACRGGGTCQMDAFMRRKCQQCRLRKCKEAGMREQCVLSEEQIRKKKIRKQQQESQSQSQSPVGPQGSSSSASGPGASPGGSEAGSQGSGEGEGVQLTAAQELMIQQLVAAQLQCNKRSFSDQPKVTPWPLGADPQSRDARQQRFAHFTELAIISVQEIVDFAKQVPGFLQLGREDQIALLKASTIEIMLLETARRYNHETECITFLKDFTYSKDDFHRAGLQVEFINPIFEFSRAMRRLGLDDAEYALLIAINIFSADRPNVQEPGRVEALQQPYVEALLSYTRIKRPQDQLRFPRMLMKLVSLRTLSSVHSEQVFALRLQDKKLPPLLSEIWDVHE

[3] = biological target: T1, Oxysterols receptor LXR-beta; assay type: functional, cell-based
[4] = biological target: NAD-dependent protein deacylase sirtuin-5, mitochondrial (Homo sapiens, UniProt Q9NXA8); test: SIRT5 desuccinylase inhibitors, dose response, biochemical, fluorescence imaging, cherry-pick, set 5 (AID 720591);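 note: desuccinylation of succinyl peptide AMC substrate read as fluorescence after trypsin release; potency of inhibitors that lower fluorescence and may act on trypsin instead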
Sequence of NAD-dependent protein deacylase sirtuin-5, mitochondrial (Q9NXA8 whole entry): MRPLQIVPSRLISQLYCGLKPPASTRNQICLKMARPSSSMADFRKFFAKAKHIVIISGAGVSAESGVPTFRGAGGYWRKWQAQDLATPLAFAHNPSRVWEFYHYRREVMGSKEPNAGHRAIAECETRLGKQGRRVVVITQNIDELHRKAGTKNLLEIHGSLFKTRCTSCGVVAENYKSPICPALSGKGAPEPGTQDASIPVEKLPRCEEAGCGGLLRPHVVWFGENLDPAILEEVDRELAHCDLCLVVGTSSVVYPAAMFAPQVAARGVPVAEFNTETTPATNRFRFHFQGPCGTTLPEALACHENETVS

[5] = P. falciparum Dd2 growth inhibitors, dose response, SYBR Green, dry powder samples, set 9 (AID 1159568); assay type: functional, cell-based
[6] = P. falciparum 3D7-ScDHODH growth inhibitors, dose response, SYBR Green, dry powder samples (AID 1159570); assay type: functional, cell-based;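 note: parasite growth measured after 72 hours of compound exposure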
[7] = P. falciparum Dd2 growth inhibitors, dose response, SYBR Green, cherry-picked samples (AID 1159567); assay type: functional, cell-based
[8] = P. falciparum Dd2 growth inhibitors, dose response, SYBR Green, dry powder samples (AID 1159566); assay type: functional, cell-based;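 note: potency for growth inhibition with lower SYBR green DNA signal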
[9] = P. falciparum ATP4 D1247Y mutant growth inhibitors, dose response, NITD609-resistant line, SYBR Green, dry powder (AID 1159571); assay type: functional, cell-based;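 note: parasites synchronized at ring stage by sorbitol before testing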

Structure (SMILES): C(=Cc1c[nH]c2ccccc12)c1nccc2ccccc12
IC50 [1]: > 67.6 µM (inactive) | EC50 [2]: > 67.6 µM (inactive) | EC50 [3]: > 67.4 µM (inactive) | EC50 (cells): > 67.4 µM (inactive)

AC50 [4]: > 30 µM (inactive)
Structure (SMILES): CCOc1ccc(CCNC(=O)c2cccc(S(=O)(=O)N3CCN(C(C)=O)CC3)c2)cc1OCC

AC50 [4]: > 30 µM (inactive)
Structure (SMILES): Cc1ccc(S(=O)(=O)N2C[C@@H]3CCCC[C@@H]3[C@@H](C)[C@H]2c2cn(Cc3ccccc3)c3ccc(F)cc23)cc1

Structure (SMILES): N#C[C@@H]1[C@H](c2ccccc2)[C@H](CO)N1C(=O)Nc1cccc(F)c1
AC50 [5]: 968 nM (active)

Structure (SMILES): C[C@@H]1CN([C@H](C)CO)C(=O)c2cc(NC(=O)Nc3ccc4c(c3)OCO4)ccc2O[C@@H](C)CCCCO[C@H]1CN(C)S(=O)(=O)c1ccccc1
AC50 [5]: 2220 nM (active)

Structure (SMILES): COc1cccc(C#Cc2ccc([C@H]3[C@@H](CO)N(C(=O)C4CCC4)[C@H]3C#N)cc2)c1
AC50 [6]: 1.17 µM (active) | AC50 [7]: 1.2 µM (active) | AC50 [8]: 636 nM (active) | AC50 [9]: 1.41 µM (active)

Structure (SMILES): COc1ccc2c3c(n(C)c2c1)[C@@H](CO)N(C(=O)c1ccc(F)cc1)CC31CN(C(=O)Nc2ccc(F)cc2)C1
AC50 [6]: 1.26 µM (active) | AC50 [7]: 1.79 µM (active) | AC50 [8]: 1220 nM (active) | AC50 [9]: 0.999 µM (active)

Source: ChEMBL document CHEMBL1201862, “PubChem BioAssay data set” (2004)
